pIC50: −log10 of the molar value. Read-outs that look alike come from different tables or passages of the source. Blank lines part the entries; values can stand above or below the molecule they belong to.
Target: T1, human p38 kinase alpha (Homo sapiens, UniProt Q16539)
T1 construct: GST (N, cleaved yes); made in house; host or cells: E. coli DH10B
Test: p38 kinase in vitro assay, phosphorylation of biotinylated PHAS-I with 32P-ATP
Type: biochemical

[1] = in vitro P38-alpha kinase inhibition, read-out: P38 alpha kinase IC50
[2] = in vitro P38-alpha kinase, read-out: P38 alpha kinase IC50
[3] = activated human p38 kinase alpha, PHAS-I substrate, 50 μM unlabeled ATP, read-out: p38 kinase IC50

T1 sequence (Q16539 whole entry): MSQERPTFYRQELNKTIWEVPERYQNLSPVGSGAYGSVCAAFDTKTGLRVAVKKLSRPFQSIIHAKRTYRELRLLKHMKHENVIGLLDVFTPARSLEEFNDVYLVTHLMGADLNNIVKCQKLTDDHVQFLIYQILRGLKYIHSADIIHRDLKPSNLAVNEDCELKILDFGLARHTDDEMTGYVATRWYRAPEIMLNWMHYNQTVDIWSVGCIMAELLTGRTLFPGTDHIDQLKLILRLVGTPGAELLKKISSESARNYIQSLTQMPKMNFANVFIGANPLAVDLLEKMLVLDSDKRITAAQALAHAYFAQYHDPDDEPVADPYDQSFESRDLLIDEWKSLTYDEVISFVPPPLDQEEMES

pIC50 [1]: 5.96
Compound: CCCOC(=O)NC(Cc1ccccc1)c1[nH]nc(-c2ccc(F)cc2)c1-c1ccncc1 (stereo not drawn) [Example B-0747]

pIC50 [2]: 4.96
Compound: Cc1c(-c2ccncc2)c(-c2ccc(F)cc2)nn1CC(=O)NCCC#N [Example B-2314]

P38 alpha kinase % inhib @ conc. (uM) (@ 1.0 uM): 79.0% @
Compound: CCOC(=O)NCCc1[nH]nc(-c2ccc(F)cc2)c1-c1ccncc1 [Example B-1054]

pIC50 [1]: 5.10
Compound: O=C(NC(Cc1ccccc1)c1[nH]nc(-c2ccc(F)cc2)c1-c1ccncc1)c1cnc2ccccc2n1 (stereo not drawn) [Example B-0828]

pIC50 [1]: 5.20
Compound: CC(Oc1ccccc1)C(=O)NC(Cc1ccccc1)c1[nH]nc(-c2ccc(F)cc2)c1-c1ccncc1 (stereo not drawn) [Example B-0857]

pIC50 [1]: 5.79
Compound: COc1ccc(C)cc1S(=O)(=O)NC(C)c1[nH]nc(-c2ccc(F)cc2)c1-c1ccncc1 (stereo not drawn) [Example B-0647]

P38 alpha kinase % inhib @ conc. (uM) (@ 1.0 uM): 74.0% @
Compound: O=S(=O)(NCCCc1[nH]nc(-c2ccc(F)cc2)c1-c1ccncc1)C(F)(F)F [Example B-1196]

pIC50 [1]: 4.70
Compound: O=C(Nc1ccc(F)cc1)NC(Cc1ccccc1)c1[nH]nc(-c2ccc(F)cc2)c1-c1ccncc1 (stereo not drawn) [Example B-0728]

P38 alpha kinase % inhib @ conc. (@ 10.0 uM): 76.0% @
Compound: Cc1c(-c2ccncc2)c(-c2ccc(F)cc2)nn1CC(=O)NC1CCSc2ccccc21 (stereo not drawn) [Example B-2348]

inhibition at 1 µM (@ 1.0 uM, read-out: P38 alpha kinase % inhib @ conc.): 93%
Compound: COc1cccc(CC(=O)NCc2[nH]nc(-c3ccc(F)cc3)c2-c2ccncc2)c1 [Example B-0040]

pIC50 [1]: 6.35
Compound: CC(NC(=O)c1cc(F)ccc1F)c1[nH]nc(-c2ccc(F)cc2)c1-c1ccncc1 (stereo not drawn) [Example B-0697]

pIC50 [2]: 6.38
Compound: O=C(NCCCc1[nH]nc(-c2ccc(F)cc2)c1-c1ccncc1)c1ccc(F)c(C(F)(F)F)c1 [Example B-1341]

pIC50 [2]: 6.40
Compound: Cc1c(-c2ccncc2)c(-c2ccc(F)cc2)nn1CC(=O)NCCCN1CCCC1=O [Example B-2280]

pIC50 [1]: 6.31
Compound: CC(NS(=O)(=O)c1ccc(Cl)c(Cl)c1)c1[nH]nc(-c2ccc(F)cc2)c1-c1ccncc1 (stereo not drawn) [Example B-0642]

pIC50 [2]: 6.04
Compound: Cc1c(-c2ccncc2)c(-c2ccc(F)cc2)nn1CC(=O)NCc1ccco1 [Example B-2282]

P38 alpha kinase % inhib @ conc. (@ 1.0 uM): 89.0% @
Compound: CCNC(=O)NCCCc1[nH]nc(-c2ccc(F)cc2)c1-c1ccncc1 [Example B-1226]

pIC50 [2]: 5.81
Compound: N#Cc1cccc(C(=O)N2CCC(c3[nH]nc(-c4ccc(F)cc4)c3-c3ccncc3)CC2)c1 [Example B-1396]

pIC50 [1]: 6.85
Compound: CC(NS(=O)(=O)c1ccc(F)cc1F)c1[nH]nc(-c2ccc(F)cc2)c1-c1ccncc1 (stereo not drawn) [Example B-0567]

pIC50 [2]: > 7.00
Compound: O=C(c1ccc(C(F)(F)F)cc1)N1CCC(c2[nH]nc(-c3ccc(F)cc3)c2-c2ccncc2)CC1 [Example B-1390]

pIC50 [2]: 6.74
Compound: O=C(NCCCc1[nH]nc(-c2ccc(F)cc2)c1-c1ccncc1)c1cccs1 [Example B-1357]

pIC50 [1]: 6.06
Compound: CN(C)C(=O)NC(Cc1ccccc1)c1[nH]nc(-c2ccc(F)cc2)c1-c1ccncc1 (stereo not drawn) [Example B-0729]

pIC50 [1]: 6.57
Compound: CCS(=O)(=O)NC(C)c1[nH]nc(-c2ccc(F)cc2)c1-c1ccncc1 (stereo not drawn) [Example B-0572]

P38 alpha kinase % inhib @ conc. (@ 10.0 uM): 76.0% @
Compound: COC(=O)[C@H](COCc1ccccc1)NC(=O)Cn1nc(-c2ccc(F)cc2)c(-c2ccncc2)c1C [Example B-2359]

P38 alpha kinase % inhib @ conc. (uM) (@ 1.0 uM): 79.0% @
Compound: O=C(NCCc1[nH]nc(-c2ccc(F)cc2)c1-c1ccncc1)C1CCCC1 [Example B-1004]

pIC50 [1]: 6.77
Compound: Cc1cccc(C(=O)NCCc2[nH]nc(-c3ccc(F)cc3)c2-c2ccncc2)c1 [Example B-1143]

pIC50 [2]: 5.77
Compound: Cc1c(-c2ccncc2)c(-c2ccc(F)cc2)nn1CC(=O)NCCN(C)C [Example B-2294]

pIC50 [1]: 7.24
Compound: Cc1cccc(Cl)c1S(=O)(=O)NC(C)c1[nH]nc(-c2ccc(F)cc2)c1-c1ccncc1 (stereo not drawn) [Example B-0644]

pIC50 [1]: > 7.00
Compound: COc1ccc(Cl)cc1S(=O)(=O)NCCc1[nH]nc(-c2ccc(F)cc2)c1-c1ccncc1 [Example B-1106]

pIC50 [2]: 7.24
Compound: O=C(NCc1ccc(S(=O)(=O)NCCCc2[nH]nc(-c3ccc(F)cc3)c2-c2ccncc2)s1)c1ccccc1 [Example B-1285]

P38 alpha kinase IC50, uM or % inhib @ conc. (uM): % inhib (@ 10.0 uM): 40.0% @
Compound: CCN(CC)C1CCN(C(=O)Cn2nc(-c3ccc(F)cc3)c(-c3ccncc3)c2C)C1 (stereo not drawn) [Example B-2391]

pIC50 [3]: 6.52
Compound: Cc1[nH]nc(-c2cccc(C(F)(F)F)c2)c1-c1ccncc1 [Example A-42]

pIC50 [1]: 5.84
Compound: CC(NC(=O)C1CCCC1)c1[nH]nc(-c2ccc(F)cc2)c1-c1ccncc1 (stereo not drawn) [Example B-0553]

pIC50 [2]: 6.92
Compound: O=C(NCCCc1[nH]nc(-c2ccc(F)cc2)c1-c1ccncc1)c1ccc(Cl)cc1 [Example B-1322]

P38 alpha kinase % inhib @ conc. (@ 10.0 uM): 48.0% @
Compound: Cc1c(-c2ccncc2)c(-c2ccc(F)cc2)nn1CC(=O)N(Cc1ccco1)CC(C)C [Example B-2378]

pIC50 [3]: 5.60
Compound: Cc1[nH]nc(-c2cccc(F)c2C)c1-c1ccncc1 [Example A-33]

P38 alpha kinase % inhib @ conc. (uM) (@ 1.0 uM): 70.0% @
Compound: COc1ccc(S(=O)(=O)NCCc2[nH]nc(-c3ccc(F)cc3)c2-c2ccncc2)cc1OC [Example B-1028]

pIC50 [1]: 4.29
Compound: Cc1cccc(C)c1NC(=O)NC(Cc1ccccc1)c1[nH]nc(-c2ccc(F)cc2)c1-c1ccncc1 (stereo not drawn) [Example B-0778]

P38 alpha kinase % inhib @ conc. (@ 10.0 uM): 84.0% @
Compound: Cc1c(-c2ccncc2)c(-c2ccc(F)cc2)nn1CC(=O)NC1CCN(CCc2c[nH]c3ccccc23)CC1 [Example B-2355]

pIC50 [1]: > 7.00
Compound: O=S(=O)(NCCc1[nH]nc(-c2ccc(F)cc2)c1-c1ccncc1)c1cccc(Cl)c1 [Example B-1090]

pIC50 [1]: 4.59
Compound: COc1ccc(NC(=O)NC(Cc2ccccc2)c2[nH]nc(-c3ccc(F)cc3)c2-c2ccncc2)cc1 (stereo not drawn) [Example B-0741]

P38 alpha kinase % inhib @ conc. (@ 100.0 uM): 73.0% @
Compound: Cc1c(-c2ccncc2)c(-c2ccc(F)cc2)nn1CC(=O)N1CCCC1 [Example B-2379]

pIC50 [1]: 7.12
Compound: O=C(NCCc1[nH]nc(-c2ccc(F)cc2)c1-c1ccncc1)c1c(F)ccc(F)c1F [Example B-1131]

pIC50 [2]: 7.72
Compound: Cc1c(-c2ccncc2)c(-c2ccc(F)cc2)nn1CC(=O)NCCc1cccnc1 [Example B-2291]

pIC50 [1]: 5.97
Compound: O=C(NCCc1[nH]nc(-c2ccc(F)cc2)c1-c1ccncc1)c1cccc(F)c1 [Example B-1145]

pIC50 [1]: 6.59
Compound: N#Cc1ccccc1S(=O)(=O)NCCc1[nH]nc(-c2ccc(F)cc2)c1-c1ccncc1 [Example B-1078]

pIC50 [1]: 5.47
Compound: COc1ccc(S(=O)(=O)NC(Cc2ccccc2)c2[nH]nc(-c3ccc(F)cc3)c2-c2ccncc2)cc1 (stereo not drawn) [Example B-0719]

pIC50 [1]: 5.53
Compound: O=C(NCCc1[nH]nc(-c2ccc(F)cc2)c1-c1ccncc1)c1cccc(C(F)(F)F)c1 [Example B-1123]

pIC50 [2]: 7.70
Compound: CNC(=O)N1CCC(c2[nH]nc(-c3ccc(F)cc3)c2-c2ccncc2)CC1 [Example B-1378]

P38 alpha kinase % inhib @ conc. (@ 100.0 uM): 73% @
Compound: Cc1c(-c2ccncc2)c(-c2ccc(F)cc2)nn1CC(=O)N(C)Cc1ccccc1 [Example B-2370]

pIC50 [2]: > 7.00
Compound: Cc1ccccc1S(=O)(=O)NCCCc1[nH]nc(-c2ccc(F)cc2)c1-c1ccncc1 [Example B-1274]

pIC50 [2]: > 7.00
Compound: COc1ccc(C)cc1S(=O)(=O)NCCCc1[nH]nc(-c2ccc(F)cc2)c1-c1ccncc1 [Example B-1275]

P38 alpha kinase % inhib @ conc. (uM) (@ 1.0 uM): 61.0% @
Compound: COc1ccc(S(=O)(=O)NCCc2[nH]nc(-c3ccc(F)cc3)c2-c2ccncc2)cc1 [Example B-1025]

pIC50 [1]: 6.00
Compound: O=C(Cc1cccs1)NC(Cc1ccccc1)c1[nH]nc(-c2ccc(F)cc2)c1-c1ccncc1 (stereo not drawn) [Example B-0790]

P38 alpha kinase IC50, uM or % inhib @ conc. (uM): % inhib (@ 10.0 uM): 85.0% 2
Compound: COc1ccc(OC)c(NC(=O)Cn2nc(-c3ccc(F)cc3)c(-c3ccncc3)c2C)c1 [Example B-2431]

pIC50 [2]: 5.64
Compound: Cc1c(-c2ccncc2)c(-c2ccc(F)cc2)nn1CC(=O)NCc1cccc2ccccc12 [Example B-2285]

pIC50 [1]: 6.82
Compound: CC(NS(=O)(=O)c1ccccc1F)c1[nH]nc(-c2ccc(F)cc2)c1-c1ccncc1 (stereo not drawn) [Example B-0569]

pIC50 [1]: 5.80
Compound: CC(NS(=O)(=O)c1cccc2cccnc12)c1[nH]nc(-c2ccc(F)cc2)c1-c1ccncc1 (stereo not drawn) [Example B-0620]

pIC50 [2]: 6.37
Compound: O=S(=O)(c1ccccc1Cl)N1CCC(c2[nH]nc(-c3ccc(F)cc3)c2-c2ccncc2)CC1 [Example B-1457]

P38 alpha kinase % inhib @ conc. (uM) (@ 1.0 uM): 76.0% @
Compound: NC(=O)NCCc1[nH]nc(-c2ccc(F)cc2)c1-c1ccncc1 [Example B-1030]

pIC50 [1]: 5.26
Compound: CC(=O)OCC(=O)NC(C)c1[nH]nc(-c2ccc(F)cc2)c1-c1ccncc1 (stereo not drawn) [Example B-0530]

P38 alpha kinase % inhib @ conc. (@ 1.0 uM): 87.0% @
Compound: C=CCNC(=O)NCCCc1[nH]nc(-c2ccc(F)cc2)c1-c1ccncc1 [Example B-1217]

pIC50 [1]: 5.98
Compound: CC(=O)OCC(=O)NC(Cc1ccccc1)c1[nH]nc(-c2ccc(F)cc2)c1-c1ccncc1 (stereo not drawn) [Example B-0797]

pIC50 [2]: 5.74
Compound: Cc1noc(C)c1S(=O)(=O)N1CCC(c2[nH]nc(-c3ccc(F)cc3)c2-c2ccncc2)CC1 [Example B-1435]

pIC50 [2]: > 7.00
Compound: O=S(=O)(NCCCc1[nH]nc(-c2ccc(F)cc2)c1-c1ccncc1)c1cccc2nonc12 [Example B-1282]

pIC50 [2]: 8.40
Compound: O=C(NCCCc1[nH]nc(-c2ccc(F)cc2)c1-c1ccncc1)c1cc(F)cc(F)c1 [Example B-1331]

pIC50 [1]: 5.77
Compound: O=S(=O)(NC(Cc1ccccc1)c1[nH]nc(-c2ccc(F)cc2)c1-c1ccncc1)c1ccc(F)cc1 (stereo not drawn) [Example B-0707]

pIC50 [1]: 5.39
Compound: CC(NC(=O)NC(Cc1ccccc1)c1[nH]nc(-c2ccc(F)cc2)c1-c1ccncc1)c1ccccc1 (stereo not drawn) [Example B-0739]

pIC50 [2]: 6.80
Compound: O=C(NCCCc1[nH]nc(-c2ccc(F)cc2)c1-c1ccncc1)c1cccc(C(F)(F)F)c1 [Example B-1324]

P38 alpha kinase % inhib @ conc. (@ 1.0 uM): 94.0% @
Compound: CCOC(=O)NCCCc1[nH]nc(-c2ccc(F)cc2)c1-c1ccncc1 [Example B-1231]

pIC50 [1]: 7.07
Compound: CC(NC(=O)c1c(Cl)cccc1Cl)c1[nH]nc(-c2ccc(F)cc2)c1-c1ccncc1 (stereo not drawn) [Example B-0696]

pIC50 [1]: 4.70
Compound: COc1ccc(NC(=O)NC(C)c2[nH]nc(-c3ccc(F)cc3)c2-c2ccncc2)cc1 (stereo not drawn) [Example B-0596]

pIC50 [2]: 5.23
Compound: Cc1c(-c2ccncc2)c(-c2ccc(F)cc2)nn1CC(=O)NCCCSC1CCCCC1 [Example B-2306]

Source: US6979686B1, “Substituted pyrazoles as p38 kinase inhibitors” (Pharmacia Corporation, priority 2001, dated 2005)
